According to patent US11186598B2, “Radioactive phospholipid metal chelates for cancer imaging and therapy” (Wisconsin Alumni Research Foundation, priority 2016, dated 2021):

Tested on: flank U87 tumors
Test: MRI comparison of Gd-DO3A-404 and DOTAREM in mice with flank U87 tumors (Example 5)
Type: in vivo, mouse
Details: as compared to Gd-DO3A-404
From the text: To verify that uptake and retention was due to targeting of the “404” moiety, we directly compared the uptake of Gd-DO3A-404 with that of DOTA-chelated Gd^3+ (DOTAREM®) in an identical tumor model (mice with flank U87 tumors) and imaging scenario, using the same number of moles of each.
We the quantified the tumor to muscle ratio and compare it to baseline scans.

`CNC[C@H](O)[C@@H](O)[C@H](O)[C@H](O)CO.O=C([O-])CN1CCN(CC(=O)[O-])CCN(CC(=O)O)CCN(CC(=O)[O-])CC1.[Gd+3]` [DOTAREM®] was tested, and the “tumor to muscle ratio compared to baseline scans (uptake)” value was “less striking, and significant only at a couple of early time points”.
